{
  "source": "PubChem BioAssay AID1896",
  "about": "(NMMLSC, 2009)",
  "target": "Mitogen-activated protein kinase kinase kinase 3 (Homo sapiens) (UniProt Q99759)",
  "sequence (Q99759 whole entry, looked up)": "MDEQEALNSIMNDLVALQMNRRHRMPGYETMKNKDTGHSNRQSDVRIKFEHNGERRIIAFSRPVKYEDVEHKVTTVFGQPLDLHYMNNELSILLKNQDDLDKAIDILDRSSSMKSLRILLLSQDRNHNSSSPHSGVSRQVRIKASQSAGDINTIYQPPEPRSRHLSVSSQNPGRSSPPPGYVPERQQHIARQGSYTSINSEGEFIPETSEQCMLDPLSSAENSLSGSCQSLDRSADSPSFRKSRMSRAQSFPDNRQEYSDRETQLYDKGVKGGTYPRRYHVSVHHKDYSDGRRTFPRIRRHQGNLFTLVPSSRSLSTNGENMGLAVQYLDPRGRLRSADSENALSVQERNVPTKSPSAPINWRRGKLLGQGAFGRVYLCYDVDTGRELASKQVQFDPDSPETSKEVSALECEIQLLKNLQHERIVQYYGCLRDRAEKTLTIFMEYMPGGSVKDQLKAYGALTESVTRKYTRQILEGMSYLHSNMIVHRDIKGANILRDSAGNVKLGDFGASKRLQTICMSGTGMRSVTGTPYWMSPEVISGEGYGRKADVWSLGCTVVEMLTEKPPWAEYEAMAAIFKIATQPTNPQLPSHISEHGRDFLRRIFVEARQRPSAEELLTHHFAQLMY",
  "assay": "inhibitors of MEK5 binding to MEKK3, dose response, biochemical, bead multiplex flow cytometry, wildtype (AID 1896)",
  "conditions": "bead-based multiplex flow cytometry, MEK5-MEKK3 PB1 binding; for Ki: measured here: Ki from EC50",
  "note": "Active and inactive are the calls of the source. No rule for the calls is given here.",
  "data": [
    {"compound": "C#CCOCCOCCOCCNc1nc(N2CCN(C(=O)[C@H]([C@@H](C)CC)n3cc([C@@H](N)CO)nn3)CC2)nc(N2CCN(C(=O)[C@H](Cc3cc4ccccc4[nH]3)n3cc([C@@H](N)C(C)CC)nn3)CC2)n1", "note": "(stereo not given in full)", "values": [
      {"measurement": "EC50", "result": "> 30 µM (inactive)"}
    ]},
    {"compound": "CCCCCCCCCCOC(=O)Cn1c(COc2ccccc2OC)[n+](C)c2ccccc21", "values": [
      {"measurement": "EC50", "result": "> 30 µM (inactive)"}
    ]},
    {"compound": "NC(N)=N/N=C/c1ccc(OCc2ccccc2Cl)cc1", "values": [
      {"measurement": "EC50", "result": "> 30 µM (inactive)"}
    ]},
    {"compound": "CCN(CC)CCOc1ccc2c(c1)C(=NNC(=O)c1ccccn1)c1cc(OCCN(CC)CC)ccc1-2", "values": [
      {"measurement": "EC50", "result": "> 30 µM (inactive)"}
    ]},
    {"compound": "CCc1ccc(Nc2n[n+](-c3ccccc3)c(-c3cc(OC)c(OC)cc3Br)s2)cc1", "values": [
      {"measurement": "EC50", "result": "> 30 µM (inactive)"}
    ]},
    {"compound": "COc1ccc(-n2nc3c(N)n[nH]c3cc2=O)cc1", "values": [
      {"measurement": "EC50", "result": 1.13, "unit": "µM"},
      {"measurement": "Ki", "result": 0.97, "unit": "µM"}
    ]},
    {"compound": "C=CC#CC[N+]1(CC#Cc2ccccc2)CCOCC1", "values": [
      {"measurement": "EC50", "result": "> 30 µM (inactive)"}
    ]},
    {"compound": "C#CCOCCOCCOCCNc1nc(N2CCN(C(=O)[C@H](CCCCN)n3cc([C@@H](N)CC(C)C)nn3)CC2)nc(N2CCN(C(=O)[C@H](Cc3cc4ccccc4[nH]3)n3cc([C@@H](N)Cc4ccc(O)cc4)nn3)CC2)n1", "values": [
      {"measurement": "EC50", "result": "> 30 µM (inactive)"}
    ]},
    {"compound": "O=C(Nc1ccc(C2=NCCN2)cc1)c1ccc(C(=O)Nc2ccc(C3=NCCN3)cc2)c([N+](=O)[O-])c1", "values": [
      {"measurement": "EC50", "result": 11.9, "unit": "µM"},
      {"measurement": "Ki", "result": 10.2, "unit": "µM"}
    ]},
    {"compound": "C#CCOCCOCCOCCNc1nc(N2CCN(C(=O)C(Cc3cc4ccccc4[nH]3)n3cc(C(N)C(C)CC)nn3)CC2)nc(N2CCN(C(=O)C(Cc3cc4ccccc4[nH]3)n3cc(C(N)C(C)CC)nn3)CC2)n1", "note": "(stereo not given)", "values": [
      {"measurement": "EC50", "result": "> 30 µM (inactive)"}
    ]},
    {"compound": "Nc1ccc(N)c(C(=O)O)c1", "values": [
      {"measurement": "EC50", "result": 3.06, "unit": "µM"},
      {"measurement": "Ki", "result": 2.62, "unit": "µM"}
    ]},
    {"compound": "CCOC(=O)C1=C(c2ccccc2)NC(N)=NC1c1ccc(OCc2ccc(Cl)cc2)c(OC)c1", "note": "(stereo not given)", "values": [
      {"measurement": "EC50", "result": "> 30 µM (inactive)"}
    ]},
    {"compound": "CCCCCCCCCCOC(=O)Cn1c(COc2cccc(OC)c2)[n+](C)c2ccccc21", "values": [
      {"measurement": "EC50", "result": "> 30 µM (inactive)"}
    ]},
    {"compound": "S=c1[nH]nc(-c2ccc(Cl)cc2)n1-c1ccc2c(c1)OCCO2", "values": [
      {"measurement": "EC50", "result": "> 30 µM (inactive)"}
    ]},
    {"compound": "C#CCOCCOCCOCCNc1nc(N2CCN(C(=O)[C@H](Cc3cc4ccccc4[nH]3)n3cc([C@@H](N)C(C)CC)nn3)CC2)nc(N2CCN(C(=O)[C@H](Cc3cc4ccccc4[nH]3)n3cc([C@@H](N)Cc4ccc(O)cc4)nn3)CC2)n1", "note": "(stereo not given in full)", "values": [
      {"measurement": "EC50", "result": "> 30 µM (inactive)"}
    ]},
    {"compound": "CCOc1ccc(C2=C/C(=C/c3cccnc3)C(=O)O2)cc1", "values": [
      {"measurement": "EC50", "result": "> 30 µM (inactive)"}
    ]},
    {"compound": "CCN(CC)CCOC(=O)c1ccc(NC(=O)c2cn(-c3ccccc3)nc2-c2cccs2)cc1", "values": [
      {"measurement": "EC50", "result": "> 30 µM (inactive)"}
    ]},
    {"compound": "CNc1nc(-c2c[nH]c3ccccc23)cs1", "values": [
      {"measurement": "EC50", "result": 8.73, "unit": "µM"},
      {"measurement": "Ki", "result": 7.47, "unit": "µM"}
    ]},
    {"compound": "CCN1CCN(CCNC(=O)c2ccc(/C=C3/Sc4ccccc4N(Cc4cccc(Cl)c4)C3=O)cc2)CC1", "values": [
      {"measurement": "EC50", "result": "> 30 µM (inactive)"}
    ]},
    {"compound": "CCN1/C(=C/C=C/C=C/C=C/c2sc3ccccc3[n+]2CC)Sc2ccccc21", "values": [
      {"measurement": "EC50", "result": "> 30 µM (inactive)"}
    ]},
    {"compound": "COc1ccc2[nH]c3c(C)c4ccncc4c(C)c3c2c1", "values": [
      {"measurement": "EC50", "result": "> 30 µM (inactive)"}
    ]}
  ]
}
